Earlier results, collected in US12544384B2, “Antibiotic conjugates” (priority 2018, dated 2026).

Test system: Mycobacterium tuberculosis (Mtb)
Conditions: background statement; cited from earlier work

For `C[C@@H]1CC[C@H]2[C@@H](C)C(=O)O[C@@H]3O[C@@]4(C)CC[C@@H]1[C@]32OO4` [artemisinin], the “Anti-tuberculosis activity (in words)” value is listed as “no anti-tuberculosis activity”.
